Reference: patent US12371441B2, “Siderophore cephalosporin conjugates and uses thereof” (ARIVA MED GMBH, priority 2019, dated 2025)
Converted amounts (≈) assume the structure as drawn. Where two headings read alike, the source gives them in different places.

Experiments:
[1] = tested on: Escherichia coli ATCC 25922; experiment: MIC by standard broth microdilution (CLSI), Escherichia coli; assay type: cell-based
Description: (§1) The in vitro activity against bacteria was determined by standard broth microdilution according to the Clinical and Laboratory Standards Institute CLSI document (Performance Standards for Antimicrobial Susceptibility Testing) M100Ed29E (2019) and (Methods for Dilution Antimicrobial Susceptibility Test for Bacteria That Grow Aerobically) M07Ed11 (2018). The data were obtained using cation-adjusted Mueller Hinton broth medium (CAMHB), and additionally iron-depleted CAMHB medium (ID-CAMHB) for compounds with iron-chelating activity.

[2] = Chromeazurol assay (iron-chelating property); assay type: physicochemical; conditions: for IC50: absorbance at 630 nm
Description: The iron-chelating property was determined by the chromeazurol assay according to Schwyn B., et al, Universal Chemical Assay for the Detection and Determination of Siderophores, 1987. Analytical Biochemistry 160: 47-56. The assay uses the affinity of chrome azurol S/iron(III)/hexadecyltrimethylamimonium bromide for iron(III). When a strong chelator removes the iron from this dye, its color turns from blue to orange and the absorbance measured at 630 nm is indicative for the chelating properties of a siderophore.

[3] = tested on: Acinetobacter baumannii ATCC 15473; experiment: MIC by standard broth microdilution (CLSI), Acinetobacter baumannii; assay type: cell-based
Description: as §1

[4] = tested on: Klebsiella pneumoniae ATCC 43816; experiment: MIC by standard broth microdilution (CLSI), Klebsiella pneumoniae; assay type: cell-based
Description: as §1

[5] = tested on: Burkholderia cepacia CF and non-CF isolates, n = 5; experiment: MIC by standard broth microdilution (CLSI), Burkholderia cepacia isolates; assay type: cell-based
Description: as §1

[6] = tested on: Pseudomonas aeruginosa ATCC 27853; experiment: MIC by standard broth microdilution (CLSI), Pseudomonas aeruginosa; assay type: cell-based
Description: as §1

[7] = ATCC25922, EC ATCC 25922, cation-adjusted Mueller Hinton broth (CAMHB), read-out: MIC in CAMHB medium
[8] = ATCC25922, EC ATCC 25922, iron-depleted CAMHB (value in parentheses), read-out: MIC in ID-CAMHB medium
[9] = ATCC15473, AB ATCC 15473, cation-adjusted Mueller Hinton broth (CAMHB), read-out: MIC in CAMHB medium
[10] = ATCC15473, AB ATCC 15473, iron-depleted CAMHB (value in parentheses), read-out: MIC in ID-CAMHB medium
[11] = ATCC43816, KP ATCC 43816, cation-adjusted Mueller Hinton broth (CAMHB), read-out: MIC in CAMHB medium
[12] = ATCC43816, KP ATCC 43816, iron-depleted CAMHB (value in parentheses), read-out: MIC in ID-CAMHB medium
[13] = read-out: MIC in ID-CAMHB medium
[14] = ATCC27853, PA ATCC 27853, cation-adjusted Mueller Hinton broth (CAMHB), read-out: MIC in CAMHB medium
[15] = ATCC27853, PA ATCC 27853, iron-depleted CAMHB (value in parentheses), read-out: MIC in ID-CAMHB medium

Row | SMILES | MIC [1, 7] [µg/mL] | MIC [1, 8] [µg/mL] | IC50 [2] [µM] | MIC [3, 9] [µg/mL] | MIC [3, 10] [µg/mL] | MIC [4, 11] [µg/mL] | MIC [4, 12] [µg/mL] | MIC ([5]; read-out: MIC in CAMHB medium) [µg/mL] | MIC [5, 13] [µg/mL] | MIC [6, 14] [µg/mL] | MIC [6, 15] [µg/mL] | MIC ([5]; BC CF and non-CF isolates, n = 5 (MIC range), CAMHB, read-out: MIC in CAMHB medium) [µg/mL] | iron-chelating activity compared with cefiderocol ([2]; versus the one measured for cefiderocol (table 1))
1 | CC(C)(O/N=C(\C(=O)NC1C(=O)N2C(C(=O)O)=C(C=NO[C@H]3C[C@H](NC(=O)c4ccc(O)c(O)c4Cl)C3)CSC12)c1csc(N)n1)C(=O)O (relative stereo) [Example 7, 7-[[(2Z)-2-(2-aminothiazol-4-yl)-2-(1-carboxy-1-methyl-ethoxy)imino-acetyl]amino]-3-[[3-[(2-chloro-3,4-dihydroxy-benzoyl)amino]- trans-cyclobutoxy]iminomethyl]-8-oxo-5-thia-1-azabicyclo[4.2.0]oct-2-ene-2-carboxylic acid] | 0.5 (≈ 0.677 µM) | 0.5 (≈ 0.677 µM) | 4.66 | 2 (≈ 2.71 µM) | 1 (≈ 1.35 µM) | 0.12 (≈ 0.163 µM) | 0.5 (≈ 0.677 µM) | 0.03 to 0.12 (≈ 0.0406 to 0.163 µM) | 0.03 to 0.12 (≈ 0.0406 to 0.163 µM) | 2 (≈ 2.71 µM) | 1 (≈ 1.35 µM) |  | 
2 | CC(C)(O/N=C(\C(=O)N[C@@H]1C(=O)N2C(C(=O)[O-])=C(C[N+]3(CCNC(=O)c4ccc(O)c(O)c4Cl)CCCC3)CS[C@H]12)c1csc(N)n1)C(=O)O [Cefiderocol, cefiderocol, reference compound] | 0.25 (≈ 0.332 µM) | 0.25 (≈ 0.332 µM) | 68.9 | 0.25 (≈ 0.332 µM) | 0.12 (≈ 0.16 µM) | 2 (≈ 2.66 µM) | 0.5 (≈ 0.665 µM) | ≤ 0.03 | ≤ 0.03 | 1 (≈ 1.33 µM) | 0.5 (≈ 0.665 µM) |  | 
3 | CC(C)(O/N=C(\C(=O)N[C@@H]1C(=O)N2C(C(=O)[O-])=C(C[n+]3ccccc3)CS[C@H]12)c1csc(N)n1)C(=O)O [Ceftazidime, reference compound] | 0.12 (≈ 0.22 µM) |  | > 100 | 4 (≈ 7.32 µM) |  | 0.12 (≈ 0.22 µM) |  |  |  | 2 (≈ 3.66 µM) |  | 4 to 16 (≈ 7.32 to 29.3 µM) | 
4 | Cn1c(N)c(NC(=O)NCCN)c[n+]1CC1=C(C(=O)O)N2C(=O)[C@@H](NC(=O)/C(=N\OC(C)(C)C(=O)[O-])c3nsc(N)n3)[C@H]2SC1 [Ceftolozane, reference compound] | 0.25 (≈ 0.375 µM) |  | > 100 | 2 (≈ 3 µM) |  | 0.25 (≈ 0.375 µM) |  | 2 to 8 (≈ 3 to 12 µM) |  | 0.5 (≈ 0.75 µM) |  |  | 
5 | CC(C)(O/N=C(\C(=O)N[C@@H]1C(=O)N2C(C(=O)O)=C(C=NOCc3cc(=O)c(O)cn3O)CS[C@H]12)c1csc(N)n1)C(=O)O [Example 1, (6R,7R)-7-[[(2Z)-2-(2-aminothiazol-4-yl)-2-(1-carboxy-1-methyl-ethoxy)imino-acetyl]amino]-3-[(1,5-dihydroxy-4-oxo-2-pyridyl)methoxyiminomethyl]-8-oxo-5-thia-1-azabicyclo[4.2.0]oct-2-ene-2-carboxylic acid] | 0.12 (≈ 0.188 µM) | 0.25 (≈ 0.392 µM) | 7.18 | 2 (≈ 3.14 µM) | 0.5 (≈ 0.784 µM) | ≤ 0.03 | 0.25 (≈ 0.392 µM) | 0.03 to 0.06 (≈ 0.0471 to 0.0941 µM) | 0.03 to 0.12 (≈ 0.0471 to 0.188 µM) | 1 (≈ 1.57 µM) | 0.25 (≈ 0.392 µM) |  | 
6 | CC(C)(O/N=C(\C(=O)N[C@@H]1C(=O)N2C(C(=O)O)=C(C=NOCc3cc(=O)c(O)cn3O)CS[C@H]12)c1nsc(N)n1)C(=O)O [Example 2, (6R,7R)-7-[[(2Z)-2-(5-amino-1,2,4-thiadiazol-3-yl)-2-(1-carboxy-1-methyl-ethoxy)imino-acetyl]amino]-3-[(1,5-dihydroxy-4-oxo-2-pyridyl)methoxyiminomethyl]-8-oxo-5-thia-1-azabicyclo[4.2.0]oct-2-ene-2-carboxylic acid] | 0.06 (≈ 0.094 µM) |  | 9.56 | 1 (≈ 1.57 µM) |  | 0.06 (≈ 0.094 µM) |  | 0.03 to 0.5 (≈ 0.047 to 0.783 µM) | 0.03 to 0.5 (≈ 0.047 to 0.783 µM) | 0.5 (≈ 0.783 µM) | 0.12 (≈ 0.188 µM) |  | 
7 | Nc1nc(/C(=N/OCF)C(=O)N[C@@H]2C(=O)N3C(C(=O)O)=C(C=NOCc4cc(=O)c(O)cn4O)CS[C@H]23)ns1 [Example 3, (6R,7R)-7-[[(2Z)-2-(5-amino-1,2,4-thiadiazol-3-yl)-2-(fluoromethoxyimino)acetyl]amino]-3-[(1,5-dihydroxy-4-oxo-2-pyridyl)methoxyiminomethyl]-8-oxo-5-thia-1-azabicyclo[4.2.0]oct-2-ene-2-carboxylic acid] | ≤ 0.03 | ≤ 0.03 | 7.96 | 8 (≈ 13.7 µM) | 16 (≈ 27.4 µM) | ≤ 0.03 | ≤ 0.03 |  |  | 4 (≈ 6.84 µM) | 0.5 (≈ 0.855 µM) |  | 
8 | CC(C)(O/N=C(\C(=O)NC1C(=O)N2C(C(=O)O)=C(C=NOCCNC(=O)c3ccc(O)c(O)c3Cl)CSC12)c1csc(N)n1)C(=O)O (stereo not shown) [Example 4, 7-[[(2Z)-2-(2-aminothiazol-4-yl)-2-(1-carboxy-1-methyl-ethoxy)imino-acetyl]amino]-3-[2-[(2-chloro-3,4-dihydroxy-benzoyl)amino]ethoxyiminomethyl]-8-oxo-5-thia-1-azabicyclo[4.2.0]oct-2-ene-2-carboxylic acid] | 0.25 (≈ 0.351 µM) | 0.25 (≈ 0.351 µM) | 4.22 | 4 (≈ 5.62 µM) | 1 (≈ 1.4 µM) | 0.06 (≈ 0.0843 µM) | 0.06 (≈ 0.0843 µM) | 0.03 to 0.12 (≈ 0.0421 to 0.169 µM) | 0.03 to 0.06 (≈ 0.0421 to 0.0843 µM) | 2 (≈ 2.81 µM) | 0.5 (≈ 0.702 µM) |  | an order of magnitude stronger
9 | CC(C)(O/N=C(\C(=O)NC1C(=O)N2C(C(=O)O)=C(C=NOCCNC(=O)c3ccc(O)c(O)c3Cl)CSC12)c1nsc(N)n1)C(=O)O (stereo not shown) [Example 5, 7-[[(2Z)-2-(5-amino-1,2,4-thiadiazol-3-yl)-2-(1-carboxy-1-methyl-ethoxy)imino-acetyl]amino]-3-[2-[(2-chloro-3,4-dihydroxy-benzoyl)amino]ethoxyiminomethyl]-8-oxo-5-thia-1-azabicyclo[4.2.0]oct-2-ene-2-carboxylic acid] | 0.25 (≈ 0.351 µM) | 0.25 (≈ 0.351 µM) | 6.41 | 1 (≈ 1.4 µM) | 0.5 (≈ 0.701 µM) | 0.5 (≈ 0.701 µM) | 1 (≈ 1.4 µM) | 0.03 to 0.12 (≈ 0.0421 to 0.168 µM) | 0.03 to 0.12 (≈ 0.0421 to 0.168 µM) | 2 (≈ 2.8 µM) | 0.5 (≈ 0.701 µM) |  | 
10 | Nc1nc(/C(=N/OCF)C(=O)NC2C(=O)N3C(C(=O)O)=C(C=NOCCNC(=O)c4ccc(O)c(O)c4Cl)CSC23)ns1 (stereo not shown) [Example 6, 7-[[(2Z)-2-(5-amino-1,2,4-thiadiazol-3-yl)-2-(fluoromethoxyimino)-acetyl]amino]-3-[2-[(2-chloro-3,4-dihydroxy-benzoyl)amino]ethoxyiminomethyl]-8-oxo-5-thia-1-azabicyclo[4.2.0]oct-2-ene-2-carboxylic acid] | 0.25 (≈ 0.379 µM) | 0.12 (≈ 0.182 µM) | 6.46 | 4 (≈ 6.07 µM) | 4 (≈ 6.07 µM) | ≤ 0.03 | ≤ 0.03 |  |  | 4 (≈ 6.07 µM) | 1 (≈ 1.52 µM) |  | 
11 | CC(C)(O/N=C(\C(=O)NC1C(=O)N2C(C(=O)O)=C(C=NO[C@H]3CCN(C(=O)c4ccc(O)c(O)c4Cl)C3)CSC12)c1csc(N)n1)C(=O)O (stereo partly drawn) [Example 8, 7-[[(2Z)-2-(2-aminothiazol-4-yl)-2-(1-carboxy-1-methyl-ethoxy)imino-acetyl]amino]-3-{[(3S)-1-(2-chloro-3,4-dihydroxy-benzoyl)pyrrolidine-3-yl]oxyiminomethyl}-8-oxo-5-thia-1-azabicyclo[4.2.0]oct-2-ene-2-carboxylic acid] | 0.12 (≈ 0.163 µM) | 0.12 (≈ 0.163 µM) | 5.64 | 0.5 (≈ 0.677 µM) | 0.5 (≈ 0.677 µM) | < 0.03 | < 0.03 |  |  | 1 (≈ 1.35 µM) | 0.25 (≈ 0.339 µM) |  | 
